The values that follow are results of earlier work, collected in patent publication US20250049842A1, “THERAPEUTIC BLOOD-ACID-SHIFTING COMPOSITIONS AND METHODS” (priority 2023, published 2025).

Each structure is given as a SMILES string.

For the data set the following is noted: for pKa (pKa1, first or only dissociation): step (1) HA/A−; for pKa2 (second dissociation): step (2).

On to `[O-][Cl+2]([O-])O` [Chloric Acid], for which the “pKa (pKa1, first or only dissociation)” value is given as less than 1.

Take `Nc1nc2ncc(CNc3ccc(C(=O)N[C@@H](CCC(=O)O)C(=O)O)cc3)nc2c(=O)[nH]1` [Folic Acid, reference compound]: the “pKa (pKa1, first or only dissociation)” value was 1.63 and the “pKa2 (second dissociation)” value is given as 2.71. Under “step (3)”, the “pKa (third dissociation)” value was 4.68. Under “step (4)”, the “pKa (fourth dissociation)” value is reported as 7.53.

Take `O=[N+]([O-])O` [Nitric Acid]: the “pKa (pKa1, first or only dissociation)” value is recorded as less than 1.

On to `O=NO` [Nitrous], for which the “pKa (pKa1, first or only dissociation)” value is reported as 3.39.

With `[O-][Cl+3]([O-])([O-])O` [Perchloric Acid], the “pKa (pKa1, first or only dissociation)” value was less than 1.

For the compound `CC(=O)C(=O)O` [Pyruvic Acid], the “pKa (pKa1, first or only dissociation)” value is listed as 2.49.

Turning to `O=S(O)O` [Sulfurous Acid], the “pKa (pKa1, first or only dissociation)” value is given as 1.18 and the “pKa2 (second dissociation)” value is given as 6.91.
